# In PubChem BioAssay (NCI):
#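 Grown in 96-well plates, cells were treated for 48 hours with each compound at five concentrations. Insufficient inhibition: endpoint recorded as highest concentration tested. The concentration for 50% growth inhibition is given as GI50. TGI: total growth inhibition.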
# How the values were obtained:
# Test in all cases: NCI tumour cell line growth inhibition, 48 h
# [1] = system: SF-295 CNS
# [2] = system: HCC-2998 colon
# [3] = system: MDA-MB-435
# [4] = system: UACC-257 melanoma
# [5] = system: SK-OV-3 ovarian
# [6] = system: SW-620 colon
# [7] = system: OVCAR-4 ovarian
# [8] = system: NCI-H522 lung
# [9] = system: OVCAR-3 ovarian
# [10] = system: 786-0 renal
# [11] = system: CCRF-CEM leukemia
# [12] = system: HOP-92 NSCLC
# [13] = system: BT-549 breast
# [14] = system: SK-MEL-2 melanoma
# [15] = system: CAKI-1 renal
# [16] = system: K-562 leukemia
# [17] = system: KM12 colon
# [18] = system: HCT-15 colon
# [19] = system: OVCAR-5 ovarian
# [20] = system: MDA-MB-231 breast
# [21] = system: NCI-H460 lung
# [22] = system: MALME-3M melanoma
# [23] = system: M14 melanoma
# [24] = system: ACHN renal
# [25] = system: SR leukemia
# [26] = system: SK-MEL-5 melanoma
# [27] = system: TK-10 renal
# [28] = system: MCF7 breast
# [29] = system: RXF 393 renal
# [30] = system: COLO 205 colon
# [31] = system: NCI/ADR-RES ovarian
# [32] = system: LOX IMVI melanoma
# [33] = system: T-47D breast
# [34] = system: A498 renal
# [35] = system: PC-3 prostate
# [36] = system: MOLT-4 leukemia
# [37] = system: SN12C renal
# [38] = system: HOP-62 NSCLC
# [39] = system: SNB-19 CNS
# [40] = system: A549 NSCLC
# [41] = system: DU-145 prostate
# [42] = system: MDA-N
# [43] = system: HCT-116 colon
# [44] = system: NCI-H226 lung
# [45] = system: NCI-H23 lung
# [46] = system: EKVX NSCLC
# [47] = system: SK-MEL-28 melanoma
# [48] = system: U251 CNS
# [49] = system: UO-31 renal
# [50] = system: UACC-62 melanoma
# [51] = system: HL-60(TB) leukemia
# [52] = system: SF-539 CNS
# [53] = system: SNB-75 CNS
# [54] = system: HS 578T breast
# [55] = system: IGROV1 ovarian
# [56] = system: OVCAR-8 ovarian
# [57] = system: SF-268 CNS
# [58] = system: HT29 colon
# [59] = system: RPMI-8226 leukemia
structure (smiles),measurement,setting,value
COc1ccccc1N1C(=O)/C(=C\c2cccc(Oc3ccccc3)c2)S(=O)(=O)C1c1ccccc1 (configuration not stated),TGI,[1],> 100 µM
same,TGI,[2],> 100 µM
same,TGI,[3],> 100 µM
same,TGI,[4],> 100 µM
same,TGI,[5],> 100 µM
same,TGI,[6],> 100 µM
same,TGI,[7],> 100 µM
same,TGI,[8],> 100 µM
same,TGI,[9],> 100 µM
same,TGI,[10],> 100 µM
same,TGI,[11],> 100 µM
same,TGI,[12],> 100 µM
same,TGI,[13],83.6 µM
same,TGI,[14],70.5 µM
same,TGI,[15],> 100 µM
same,TGI,[16],> 100 µM
same,TGI,[17],> 100 µM
same,TGI,[18],> 100 µM
same,TGI,[19],> 100 µM
same,TGI,[20],> 100 µM
same,TGI,[21],> 100 µM
same,TGI,[22],> 100 µM
same,TGI,[23],> 100 µM
same,TGI,[24],> 100 µM
same,TGI,[25],56.2 µM
same,TGI,[26],53.7 µM
same,TGI,[27],> 100 µM
same,TGI,[28],> 100 µM
same,TGI,[29],> 100 µM
same,TGI,[30],88.3 µM
same,TGI,[31],67.6 µM
same,TGI,[32],> 100 µM
same,TGI,[33],> 100 µM
same,TGI,[34],> 100 µM
same,TGI,[35],> 100 µM
same,TGI,[36],32.8 µM
same,TGI,[37],> 100 µM
same,TGI,[38],> 100 µM
same,TGI,[39],> 100 µM
same,TGI,[40],> 100 µM
same,TGI,[41],> 100 µM
same,TGI,[42],> 100 µM
same,TGI,[43],> 100 µM
same,TGI,[44],> 100 µM
same,TGI,[45],> 100 µM
same,TGI,[46],> 100 µM
same,TGI,[47],> 100 µM
same,TGI,[48],> 100 µM
same,TGI,[49],> 100 µM
same,TGI,[50],> 100 µM
O=S1(=O)CC(Br)C(Br)C1 (configuration not stated),GI50,[1],24.5 µM
same,TGI,[1],> 100 µM
same,GI50,[2],14.9 µM
same,TGI,[2],28.9 µM
same,GI50,[3],4.16 µM
same,TGI,[3],18.6 µM
same,GI50,[4],4.94 µM
same,TGI,[4],51.2 µM
same,GI50,[5],23.2 µM
same,TGI,[5],90 µM
same,GI50,[7],3.11 µM
same,TGI,[7],18.4 µM
same,GI50,[51],3.5 µM
same,TGI,[51],8.75 µM
same,GI50,[8],1.99 µM
same,TGI,[8],3.86 µM
same,GI50,[9],2.77 µM
same,TGI,[9],7.82 µM
same,GI50,[52],13.6 µM
same,TGI,[52],54.4 µM
same,GI50,[10],10.5 µM
same,TGI,[10],25.5 µM
same,GI50,[11],1.6 µM
same,TGI,[11],8.95 µM
same,GI50,[12],2.35 µM
same,TGI,[12],7.43 µM
same,GI50,[13],5.4 µM
same,TGI,[13],18.5 µM
same,GI50,[14],8.74 µM
same,TGI,[14],28.6 µM
same,GI50,[15],3.12 µM
same,TGI,[15],11.8 µM
same,GI50,[53],5.25 µM
same,TGI,[53],19.1 µM
same,GI50,[16],3.79 µM
same,TGI,[16],14.2 µM
same,GI50,[17],13.4 µM
same,TGI,[17],32.4 µM
same,GI50,[18],2.64 µM
same,TGI,[18],7.24 µM
same,GI50,[19],15.8 µM
same,TGI,[19],54.9 µM
same,GI50,[20],3.15 µM
same,TGI,[20],10.3 µM
same,GI50,[21],20.4 µM
same,TGI,[21],61.8 µM
same,GI50,[22],3.91 µM
same,TGI,[22],13.1 µM
same,GI50,[23],5.67 µM
same,TGI,[23],20.8 µM
same,GI50,[24],2.61 µM
same,TGI,[24],6.72 µM
same,GI50,[25],3.58 µM
same,TGI,[25],21.6 µM
same,GI50,[26],2.3 µM
same,TGI,[26],10.3 µM
same,GI50,[27],3.77 µM
same,TGI,[27],11.9 µM
same,GI50,[28],2.72 µM
same,TGI,[28],11.7 µM
same,GI50,[54],5.5 µM
same,TGI,[54],76.3 µM
same,GI50,[29],1.11 µM
same,TGI,[29],2.64 µM
same,GI50,[30],1.61 µM
same,TGI,[30],3.17 µM
same,GI50,[31],5.26 µM
same,TGI,[31],> 100 µM
same,GI50,[32],0.628 µM
same,TGI,[32],10 µM
same,GI50,[33],3.16 µM
same,TGI,[33],13.6 µM
same,GI50,[55],10.6 µM
same,TGI,[55],28.6 µM
same,GI50,[34],25.1 µM
same,TGI,[34],55.1 µM
same,GI50,[35],10.7 µM
same,TGI,[35],26.3 µM
same,GI50,[36],3.27 µM
same,TGI,[36],16.2 µM
same,GI50,[37],4.07 µM
same,TGI,[37],17.4 µM
same,GI50,[38],12.7 µM
same,TGI,[38],27.6 µM
same,GI50,[39],29.4 µM
same,TGI,[39],> 100 µM
same,GI50,[56],4.85 µM
same,TGI,[56],18.4 µM
same,GI50,[40],13.5 µM
same,TGI,[40],28.9 µM
same,GI50,[41],4.21 µM
same,TGI,[41],15.9 µM
same,GI50,[57],21.5 µM
same,TGI,[57],> 100 µM
same,GI50,[58],3.71 µM
same,TGI,[58],11.3 µM
same,GI50,[43],2.34 µM
same,TGI,[43],6.53 µM
same,GI50,[44],1.49 µM
same,TGI,[44],11.2 µM
same,GI50,[45],7.88 µM
same,TGI,[45],26 µM
same,GI50,[46],18.5 µM
same,TGI,[46],49.8 µM
same,GI50,[47],3.64 µM
same,TGI,[47],13.7 µM
same,GI50,[59],12.3 µM
same,TGI,[59],41.2 µM
same,GI50,[48],7.28 µM
same,TGI,[48],23.6 µM
same,GI50,[49],3.77 µM
same,TGI,[49],14.7 µM
same,GI50,[50],5.39 µM
same,TGI,[50],18.7 µM
c1ccc(CNc2ncnc3n[nH]nc23)cc1,TGI,[1],> 100 µM
same,TGI,[2],> 100 µM
same,TGI,[3],> 100 µM
same,TGI,[4],> 100 µM
same,TGI,[5],> 100 µM
same,TGI,[6],> 100 µM
same,TGI,[7],> 100 µM
same,TGI,[51],> 100 µM
same,TGI,[8],> 100 µM
same,TGI,[9],> 100 µM
same,TGI,[52],> 100 µM
same,TGI,[10],> 100 µM
same,TGI,[11],> 100 µM
same,TGI,[12],> 100 µM
same,TGI,[14],> 100 µM
same,TGI,[15],> 100 µM
same,TGI,[53],> 100 µM
same,TGI,[16],> 100 µM
same,TGI,[17],> 100 µM
same,TGI,[18],> 100 µM
same,TGI,[19],> 100 µM
same,TGI,[20],> 100 µM
same,TGI,[22],> 100 µM
same,TGI,[23],> 100 µM
same,TGI,[24],> 100 µM
same,TGI,[26],> 100 µM
same,TGI,[27],> 100 µM
same,TGI,[28],> 100 µM
same,TGI,[29],> 100 µM
same,TGI,[30],> 100 µM
same,TGI,[31],> 100 µM
same,TGI,[32],> 100 µM
same,TGI,[33],> 100 µM
same,TGI,[55],> 100 µM
same,TGI,[34],> 100 µM
same,TGI,[35],> 100 µM
same,TGI,[36],> 100 µM
same,TGI,[37],> 100 µM
same,TGI,[38],> 100 µM
same,TGI,[39],> 100 µM
same,TGI,[56],> 100 µM
same,TGI,[40],> 100 µM
same,TGI,[41],> 100 µM
same,TGI,[42],> 100 µM
same,TGI,[58],> 100 µM
same,TGI,[43],> 100 µM
same,TGI,[44],> 100 µM
same,TGI,[45],> 100 µM
same,TGI,[46],> 100 µM
same,TGI,[47],> 100 µM
same,TGI,[48],> 100 µM
same,TGI,[49],> 100 µM
same,TGI,[50],> 100 µM
